Drawing on patent US20170334899A1, “AMINO-SUBSTITUTED ISOTHIAZOLES” (Bayer Pharma Aktiengesellschaft, priority 2014, published 2017), this text covers IC50 for 24 compounds.

A value given as a limit tells only on which side of the number the result lay.

In experiment [1] the test system is human cervical tumor cell line HeLa (ATCC CCL-2). In words: SAC-Formation - Paclitaxel-Induced Assay. Type of experiment: cell-based. The settings on record: Homo sapiens, HeLa, 24 h, HeLa cells, paclitaxel 0.05 μM, test range 0.005 μM-20 μM, read-out: IC50 [mol/l] SAC-Formation - Paclitaxel-Induced Assay. Summed up:
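HeLa cells incubated overnight at 37° C, then given paclitaxel (0.05 μM final) plus test compound (0.005–20 μM, 0.5% DMSO) together for 24 h at 37° C. Fixed cells stained for phospho-histone H3 Ser10 (mitotic cells) and Hoechst 33342 (cell count); imaging-derived mitotic index fitted by four-parameter Hill equation.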

A further experiment deals with HeLa. In words: Proliferation assay (crystal violet), HeLa. Type of experiment: cell-based. The settings on record: Homo sapiens, HeLa, 96 h, HeLa cells; 4 days incubation; crystal violet staining; read-out: IC50 inhibition of proliferation, HeLa. The method, boiled down: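 Cells plated at 1000-5000/well with 10% FCS, treated after 24 h with compound at 0.001-10 μM (0.5% DMSO) for 4 days. Glutaraldehyde-fixed, crystal violet-stained, A595 normalised to zero-point plate (0%) and untreated cells (100%); IC50 by 4-parameter fit.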

As for `Cc1nsc(Nc2cnc3ccccc3n2)c1C(=O)Nc1ccc(OC2CCN(CC(F)(F)F)CC2)nc1` [Example 21, 3-Methyl-5-(quinoxalin-2-ylamino)-N-(6-{[1-(2,2,2-trifluoroethyl)piperidin-4-yl]oxy}-pyridin-3-yl)-1,2-thiazole-4-carboxamide], the IC50 in experiment [1] was found to be 150 nM; in the experiment with HeLa, 870 nM.
On the same counts, the results for `Cc1nsc(Nc2cnc(C(F)(F)F)cn2)c1C(=O)Nc1ccc(F)c(OCC2CCN(CCF)C2)c1` (stereo not drawn) [Example 317, N-(4-fluoro-3-{[1-(2-fluoroethyl)pyrrolidin-3-yl]methoxy}phenyl)-3-methyl-5-{[5-(trifluoromethyl)pyrazin-2-yl]amino}-1,2-thiazole-4-carboxamide] are 610 nM and 450 nM.
For `Cc1nsc(Nc2cnc(C(F)(F)F)cn2)c1C(=O)Nc1ccc(OCCCO)nc1` [Example 279, N-[6-(3-hydroxypropoxy)pyridin-3-yl]-3-methyl-5-{[5-(trifluoromethyl)pyrazin-2-yl]amino}-1,2-thiazole-4-carboxamide], in that order: 720 nM and 2200 nM.
On the same counts, the results for `Cc1nsc(Nc2cc(C#N)ccn2)c1C(=O)Nc1ccc(OC2CCN(C(=O)OC(C)(C)C)CC2)nc1` [Example 23, tert-Butyl 4-({5-[({5-[(4-cyanopyridin-2-yl)amino]-3-methyl-1,2-thiazol-4-yl}-carbonyl)amino]pyridin-2-yl}oxy)piperidine-1-carboxylate] are 32 nM and 2600 nM.
Take `Cc1nsc(Nc2cnc(C(F)(F)F)cn2)c1C(=O)Nc1ccc(C(=O)NC2CN(CC(F)F)C2)cc1` [Example 271, N-(4-{[1-(2,2-difluoroethyl)azetidin-3-yl]carbamoyl}phenyl)-3-methyl-5-{[5-(trifluoromethyl)pyrazin-2-yl]amino}-1,2-thiazole-4-carboxamide]: the IC50 in experiment [1] was determined as 2100 nM; in the experiment with HeLa, 9400 nM.
For `Cc1nsc(Nc2cnc(C(F)(F)F)cn2)c1C(=O)Nc1ccc(F)c(OCCCN(C)CCC(F)(F)F)c1` [Example 303, N-(4-fluoro-3-{3-[methyl(3,3,3-trifluoropropyl)amino]propoxy}phenyl)-3-methyl-5-{[5-(trifluoromethyl)pyrazin-2-yl]amino}-1,2-thiazole-4-carboxamide], the IC50 in experiment [1] was 32 nM; in the experiment on HeLa it was 400 nM.
For `Cc1nsc(Nc2cnc(C(F)(F)F)cn2)c1C(=O)Nc1ccc(F)c(OCC2CCN(CC(F)(F)F)CC2)c1` [Example 310, N-(4-fluoro-3-{[1-(2,2,2-trifluoroethyl)piperidin-4-yl]methoxy}phenyl)-3-methyl-5-{[5-(trifluoromethyl)pyrazin-2-yl]amino}-1,2-thiazole-4-carboxamide], in that order: 49 nM and 230 nM.
As for `Cc1nsc(Nc2cnc(C(F)(F)F)cn2)c1C(=O)Nc1ccc(F)c(OCCCN(C)CC(F)(F)F)c1` [Example 302, N-(4-fluoro-3-{3-[methyl(2,2,2-trifluoroethyl)amino]propoxy}phenyl)-3-methyl-5-{[5-(trifluoromethyl)pyrazin-2-yl]amino}-1,2-thiazole-4-carboxamide], the IC50 worked out at 430 nM in experiment [1] and 340 nM in the experiment on HeLa.
Take `Cc1nsc(Nc2ccc(C#N)cn2)c1C(=O)Nc1cccc(C(=O)NC(C)C)c1` [Example 255, 5-[(5-cyanopyridin-2-yl)amino]-N-[3-(isopropylcarbamoyl)phenyl]-3-methyl-1,2-thiazole-4-carboxamide]: the IC50 in experiment [1] was determined as 10000 nM; in the experiment with HeLa it was 6100 nM.
On the same counts, the results for `Cc1nsc(Nc2cnc(C(F)(F)F)cn2)c1C(=O)Nc1ccc(C(=O)N2CCN(C)CC2)cc1` [Example 262, 3-methyl-N-{4-[(4-methylpiperazin-1 yl)carbonyl]phenyl}-5-{[5-(trifluoromethyl)pyrazin-2-yl]amino}-1,2-thiazole-4-carboxamide] are 4800 nM and 9400 nM.
On the same counts, the results for `Cc1nsc(Nc2cnc(C(F)(F)F)cn2)c1C(=O)Nc1ccc(OCCCNCC(F)F)nc1` [Example 293, N-(6-{3-[(2,2-difluoroethyl)amino]propoxy}pyridin-3-yl)-3-methyl-5-{[5-(trifluoromethyl)pyrazin-2-yl]amino}-1,2-thiazole-4-carboxamide] are 4000 nM and 5300 nM.
On the same counts, the results for `Cc1nsc(Nc2cnc(C(F)(F)F)cn2)c1C(=O)Nc1ccc(F)c(OCCCNCC(F)(F)F)c1` [Example 306, N-(4-fluoro-3-{3-[(2,2,2-trifluoroethyl)amino]propoxy}phenyl)-3-methyl-5-{[5-(trifluoromethyl)pyrazin-2-yl]amino}-1,2-thiazole-4-carboxamide] are 95 nM and 570 nM.
For `Cc1nsc(Nc2cc(C#N)ccn2)c1C(=O)Nc1cccc(C(=O)NC(C)C)c1` [Example 254, 5-[(4-cyanopyridin-2-yl)amino]-N-[3-(isopropylcarbamoyl)phenyl]-3-methyl-1,2-thiazole-4-carboxamide], the IC50 in experiment [1] was 2300 nM; in the experiment on HeLa, > 10000 nM.
On the same counts, the results for `Cc1nsc(Nc2cnc(C(F)(F)F)cn2)c1C(=O)Nc1ccc(F)c(OCC2CCN(C(CF)CF)C2)c1` (stereo not drawn) [Example 320, N-(3-{[1-(1,3-difluoropropan-2-yl)pyrrolidin-3-yl]methoxy}-4-fluorophenyl)-3-methyl-5-{[5-(trifluoromethyl)pyrazin-2-yl]amino}-1,2-thiazole-4-carboxamide] are 290 nM and 680 nM.
On the same counts, the results for `CCNC(=O)c1cccc(NC(=O)c2c(C)nsc2Nc2cnc3ccccc3n2)c1` [Example 251, N-[3-(ethylcarbamoyl)phenyl]-3-methyl-5-(quinoxalin-2-ylamino)-1,2-thiazole-4-carboxamide] are 3000 nM and 4500 nM.
For `Cc1nsc(Nc2cncc(C(F)(F)F)n2)c1C(=O)Nc1ccc(F)c(OC2CCN(CC(F)(F)F)CC2)c1` [Example 267, N-(4-fluoro-3-{[1-(2,2,2-trifluoroethyl)piperidin-4-yl]oxy}phenyl)-3-methyl-5-{[6-(trifluoromethyl)pyrazin-2-yl]amino}-1,2-thiazole-4-carboxamide], in that order: 20 nM and 580 nM.
For `CC(=O)N1CCC(Oc2ccc(NC(=O)c3c(C)nsc3Nc3cnc4ccccc4n3)cn2)CC1` [Example 22, N-{6-[(1-acetylpiperidin-4-yl)oxy]pyridin-3-yl}-3-methyl-5-(quinoxalin-2-ylamino)-1,2-thiazole-4-carboxamide], the figures for the IC50 (in experiment [1]; in the experiment on HeLa) were 2100 nM and 7600 nM, respectively.
For `Cc1nsc(Nc2cnc(C(F)(F)F)cn2)c1C(=O)Nc1ccc(OC2CCN(C(CF)CF)C2)nc1` (stereo not drawn) [Example 313, N-(6-{[1-(1,3-difluoropropan-2-yl)pyrrolidin-3-yl]oxy}pyridin-3-yl)-3-methyl-5-{[5-(trifluoromethyl)pyrazin-2-yl]amino}-1,2-thiazole-4-carboxamide], in that order: 55 nM and 620 nM.
For `Cc1nsc(Nc2cnc3ccccc3n2)c1C(=O)Nc1ccc(N2CCN(C(=O)OC(C)(C)C)CC2)nc1` [Example 248, tert-butyl 4-[5-({[3-methyl-5-(quinoxalin-2-ylamino)-1,2-thiazol-4-yl]carbonyl}amino)pyridin-2-yl]piperazine-1-carboxylate], in that order: 940 nM and 3100 nM.
Take `Cc1nsc(Nc2cnc3ccccc3n2)c1C(=O)Nc1cccc(NS(=O)(=O)C2CCN(C(=O)OC(C)(C)C)CC2)c1` [Example 258, tert-butyl 4-{[3-({[3-methyl-5-(quinoxalin-2-ylamino)-1,2-thiazol-4-yl]carbonyl}amino)phenyl]sulfamoyl} piperidine-1-carboxylate]: the IC50 came out at 2000 nM in experiment [1] and 7000 nM with HeLa.
For `Cc1nsc(Nc2cncc(C(F)(F)F)n2)c1C(=O)Nc1ccc(C(=O)NC2CN(CC(F)(F)F)C2)cc1` [Example 280, 3-methyl-N-(4-{[1-(2,2,2-trifluoroethyl)azetidin-3-yl]carbamoyl}phenyl)-5-{[6-(trifluoromethyl)pyrazin-2-yl]amino}-1,2-thiazole-4-carboxamide], in that order: 3700 nM and > 10000 nM.
Consider `Cc1nsc(Nc2cncc(C(F)(F)F)n2)c1C(=O)Nc1ccc(OCCO)nc1` [Example 276, N-[6-(2-hydroxyethoxy)pyridin-3-yl]-3-methyl-5-{[6-(trifluoromethyl)pyrazin-2-yl]amino}-1,2-thiazole-4-carboxamide], for which the results for the IC50 (in experiment [1]; with HeLa) were 1900 nM and 4900 nM, respectively.
For `Cc1nsc(Nc2cnc3ccccc3n2)c1C(=O)Nc1cccc(NS(=O)(=O)C2CN(CC(F)F)C2)c1` [Example 286, N-[3-({[1-(2,2-difluoroethyl)azetidin-3-yl]sulfonyl}amino)phenyl]-3-methyl-5-(quinoxalin-2-ylamino)-1,2-thiazole-4-carboxamide], in that order: 6500 nM and 10000 nM.
Regarding `Cc1nsc(Nc2cnc3ccccc3n2)c1C(=O)Nc1cccc(NS(=O)(=O)C2CCN(CC(F)F)CC2)c1` [Example 282, N-[3-({[1-(2,2-difluoroethyl)piperidin-4-yl]sulfonyl}amino)phenyl]-3-methyl-5-(quinoxalin-2-ylamino)-1,2-thiazole-4-carboxamide], the IC50 in experiment [1] is 3500 nM; with HeLa, 6200 nM.
